Assay results taken from patent US20140221389A1, “USE OF 4-AMINO-5-FLUORO-3-[6-(4-METHYLPIPERAZIN-1-YL)-1H-BENZIMIDAZOL-2-YL]-1H-QUINOLIN-2-ONE IN THE TREATMENT OF CANCER IN MODERATE HEPATIC IMPAIRED PATIENTS” (Novartis AG, priority 2011, published 2014).

Experiment: Plasma pharmacokinetics of COMPOUND I in Phase I and II studies
Format: in vivo, patients

CN1CCN(c2ccc3nc(-c4c(N)c5c(F)cccc5[nH]c4=O)[nH]c3c2)CC1 [COMPOUND I, 4-amino-5-fluoro-3-[6-(4-methylpiperazin-1-yl)-1H-benzimidazol-2-yl]-1H-quinolin-2-one]
inter-subject coefficient of variation (CV %) for AUC (500 mg/day on a 5 days on/2 days off dosing schedule): around 50%
plasma pharmacokinetic (all doses tested from 25 to 600 mg, continuous daily dosing regimen): time dependent
exposure of COMPOUND I with dose (doses of 400 mg/day and above, continuous daily dosing regimen): prolonged over-proportional exposure
